Data published in a compilation of properties of binary mixtures (doi:10.1021/acs.jced.9b01018).

Assay: xn = mol fraction of the nth substance listed
Settings: 100 kPa

CC(=O)[O-].CCCC[n+]1ccn(C)c1 + O
viscosity [mPa·s]
Settings | 278.15 K | 283.15 K | 293.15 K | 298.15 K | 303.15 K | 313.15 K | 323.15 K | 333.15 K | 343.15 K | 353.15 K
x2 = 0.012 | 2390 | 1403 | 562 | 375 | 260 | 136.6 | 79.4 | – | 31.37 | 21.85
x2 = 0.0173 | 2429 | 1425 | 567 | 380 | 263 | – | 78 | 48.1 | 31.4 | 22.07
